These are literature values, as cited in patent publication US20180193283A1, “TRANSDERMAL THERAPEUTIC SYSTEM CONTAINING ASENAPINE” (LTS LOHMANN Therapie-Systeme AG, priority 2016, published 2018).

Like-named read-outs stand apart in the source and are kept apart here. Where only a bound is given, the exact number is not on record here.

For series [1] the following is noted: very common side effects.

The term bioavailability denotes the share of a dose that reaches the circulation, judged against a reference dose that is usually intravenous. On to `CN1C[C@H]2c3ccccc3Oc3ccc(Cl)cc3[C@@H]2C1` (relative stereo) [asenapine, (3aRS,12bRS)-rel-5-chloro-2,3,3a,12b-tetrahydro-2-methyl-1H-dibenz[2,3:6,7]oxepino[4,5-c]pyrrole], for which the “Somnolence and anxiety, frequency” value in series [1] is ≥ 10 % of the patients. Besides, the bioavailability is given as below 2% (if ingested) and 35% (when taken sublingually). Further, for the setting “sublingual administration, therapeutic doses”, the terminal disposition half-life is at least 24 h.
